Where “and” joins values, the source holds several entries; their conditions need not be identical. Equal values may be shown once. Where a name gives a salt, the structure may show the parent alone. Read-outs that look alike come from different tables or passages of the source.
Tests used:
[1] = system: conjunctival goblet cell mucous secretion; test: in vivo rat model: topical agents, density of mucin-containing goblet cells (alcian blue/PAS);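 for all read-outs here: rat eyes dosed topically with 20 µl drops every 20 min over 1 hr, non-secreted goblet cells counted in three 0.16 mm^2 conjunctival areas, lower density means more mucous secretion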; conditions: for (Stimulus) Optimal Effective Conc. (M): Table 1; for (Stimulus) Max % Increase in Secretion: Table 1, at optimal effective conc.; for conjunctival goblet cell mucous secretion (in words): topical application, summary of Example II; for concentration giving the maximum effect on goblet cell density: topical; for goblet cell mucous secretion (in words): summary of Example I
Method: Thus, the in vivo rat model can be used to study conjunctival goblet cell mucous secretion. With this model, the ocular surface of anesthetized rats is treated topically or subconjunctivally. After treatment, the animals are euthanized, the ocular surface is fixed, conjunctival tissue is removed and mucus in the secretory granules of goblet cells stained with alcian blue and periodic acid-Schiff's (PAS) reagents to indicate mucin-containing goblet cells. The number of mucin-containing goblet cells is then determined. A decrease in the number of mucin-containing goblet cells indicates an increase in goblet cell secretion.
To determine the effect of topically applied solutions, experimental solutions (20 μl drops) were placed on each eye from the temporal region every 20 min for 1 hr. The solutions were carefully removed with a cotton-tipped applicator from the nasal region of the eyes before placement of the next drop or before euthanization. […] Because conjunctival goblet cell density is not uniform throughout the conjunctiva, care was taken to use a specific area for sampling. […] Conjunctival buttons were then dissected and tissue placed epithelial side up on gelatin-coated, glass microscope slides. […] Mucin contained in the secretory granules of the goblet cells was stained with alcian blue and periodic acid-Schiff (PAS) stain (79). The number of mucin-containing goblet cells was counted in a masked fashion using light microscopy (standard Zeiss microscope) at 160× magnification. The density of mucin-containing goblet cells was determined by averaging counts of goblet cells in three 0.16 mm^2 areas in each button. A decrease in mucin containing goblet cell number per unit area (density) indicated an increase in mucous secretion.
The mucin-containing goblet cells stained purple and fuchsia with alcian blue and PAS, respectively. By focusing through the tissue, cells with moderate to intense staining and sharp, defined cell borders were considered non-secreted and were counted. Cells with very light stain, absence of color, indistinguishable color from background staining and fuzzy borders were considered cells that had secreted mucus and were not counted. Following these criteria, the non-secreted mucin-containing goblet cells in the three 0.16 mm^2 areas were counted, averaged and expressed as mucin-containing goblet cell density. Therefore, a decrease in mucin-containing goblet cell density indicated mucous secretion.
To determine the effect of topically applied compounds, an experimental buffer containing the test compound (20 μl drops) was placed on one eye from the temporal region every 20 min for 1 hr unless otherwise indicated. […] The solutions were removed from the nasal region of the eye with a cotton-tipped applicator. After the 1 hr protocol, animals were euthanized with sodium pentobarbital.

[2] = system: conjunctival goblet cell mucous secretion; test: local anesthetics on sensory stimulation (corneal debridement) of goblet cell mucous secretion; assay type: in vivo, rat
Method: Rats were anesthetized with sodium pentobarbital (65 mg/kg).
Fifteen min after application of local anesthetic, the central cornea of one eye was wounded by debridement (2-3 mm diameter area), the other was sham-debrided and 5 min later the animal was euthanized with intraperitoneal sodium pentobarbital ([…]).

[3] = system: conjunctival goblet cells; test: light microscopy of H and E stained conjunctival sections after topical lidocaine; assay type: in vivo, rat; conditions: 1% topical
Method: The globe of the eye was excised. The posterior half of the globe was removed, followed by removal of the lens and iris. The remaining tissue (the ocular surface) including the cornea, the limbus, and the bulbar conjunctiva was frozen in O. C. T. Compound (Miles Inc., Elkart, Ind.).
Tissue sections (20 μm) were prepared from the ocular surface and stained with hematoxylin and eosin (H and E). Sections were examined using an Olympus Microscope (BH-2; Micro-Tech Optical, Inc., Hudson, Mass.).

[4] = system: conjunctival goblet cell mucous secretion; conditions: cited from earlier work
[5] = system: conjunctival goblet cell mucous secretion; conditions: 100 μg topical, rabbits, cited from earlier work
[6] = system: conjunctival goblet cell density; conditions: long term exposure of rabbit ocular surface; cited from earlier work
[7] = 10^-8 M topical, 1 hr, inferior conjunctiva
[8] = 10^-8 M topical, 1 hr, Example II
[9] = 10^-4 M topical, 1 hr, inferior conjunctiva

With Vasoactive Intestinal Peptide [VIP] the “decrease in mucin-containing goblet cell density from contralateral control” value [1, 7] was 39%, the “mucin-containing goblet cell density, inferior conjunctiva” value [1, 8] was 150±23 cells and the “(Stimulus) Optimal Effective Conc. (M)” value [1] was 10^-8 M. For the same compound, the “(Stimulus) Max % Increase in Secretion” value [1] was 39%, the “conjunctival goblet cell mucous secretion (in words)” value [1] was “stimulate conjunctival goblet cell mucous secretion” and the “concentration giving the maximum effect on goblet cell density” value (shortened to “concentration giving the maximum effect”) ([1]; 1 hr, Example II) was 10^-8 M.

With `CCN(CC)CC(=O)Nc1c(C)cccc1C` [lidocaine, lidocaine hydrochloride] the “effect on sensory stimulation of mucous secretion” value (shortened to “effect on sensory stimulation”) ([2]; 1% sub-conjunctival injection alone) was “inhibited sensory stimulation of mucous secretion”, the “mucin-containing goblet cells in treated, wounded eyes” value ([2]; 1% sub-conjunctival injection prior to the wound) was 100±28 cells and the “mucin-containing goblet cells in treated, contralateral sham-wounded eyes” value ([2]; 1% sub-conjunctival injection, sham-wounded) was 98±24 cells. The “effect on sensory stimulation” value ([2]; 1% topical alone) was “inhibited sensory stimulation of mucous secretion”, the “effect on sensory stimulation” value ([2]; 1% topical and sub-conjunctival injection) was “inhibited the sensory stimulation of goblet cell mucous secretion” and the “mucin-containing goblet cells in treated, contralateral sham-wounded eyes” value ([2]; 1% topical and sub-conjunctival injection, sham-wounded) was 110±25 cells. For the same compound, the “mucin-containing goblet cells in treated, wounded eyes” value ([2]; 1% topical and sub-conjunctival injection, then wounded) was 132±21 cells, the “mucin-containing goblet cells in treated, wounded eyes” value ([2]; 1% topical prior to the wound) was 84±7 cells and the “mucin-containing goblet cells in treated, sham-wounded eyes” value ([2]; 1% topical, sham-wounded) was 78±5 cells. The “goblet cells detected in H- and E-stained sections” value ([3]; 5 min (FIG. 6B)) was “some goblet cells” and the “goblet cells detected in H- and E-stained sections” value ([3]; 10 min (FIG. 6C)) was “numerous goblet cells”.

In the case of `CCCOc1ccc(C(=O)OCCN(CC)CC)cc1N` [proparacaine, Proparacaine hydrochloride], the “inhibition of sensory stimulation of mucous secretion” value ([2]; 0.5% topical, 15 min before corneal debridement) is reported as “unable to inhibit sensory stimulation of mucous secretion”.

In the case of Substance P, the “decrease in mucin-containing goblet cell density from contralateral control eye” value ([1]; 10^-6 M topical, 1 hr) is reported as 58%, the “mucin-containing goblet cell density” value ([1]; 10^-6 M topical, 1 hr, Example II) is reported as 77±18 cells and the “effect on mucin-containing goblet cell density” value ([1]; 10^-10 or 10^-8 M topical) is reported as “not at 10^-10 or 10^-8 M”. The “(Stimulus) Optimal Effective Conc. (M)” value [1] was 10^-6 M, the “(Stimulus) Max % Increase in Secretion” value [1] was 42% and the “conjunctival goblet cell mucous secretion (in words)” value [1] was “stimulate conjunctival goblet cell mucous secretion”.

For `Nc1nc2c(nc(Br)n2[C@@H]2O[C@@H]3COP(=O)(O)O[C@H]3[C@H]2O)c(=O)[nH]1` [8-Br-cGMP], the mucin discharge [4] is given as 2-3 fold.

For `CCCC[C@H](C)C(O)C#CC1CCC(=O)C1C/C=C\CCCC(=O)OC` (stereo partly drawn) [FCE20700, 11-deoxy-13,14-didehydro-16(S)-methylester methyl PGE2], the “goblet cells with mucous secretion” value ([5]; 0.5 hr) is given as 86.9% and the “goblet cells with mucous secretion” value ([5]; 2.5 hr) is given as 90.3%.

For `NCCc1ccc(O)c(O)c1` [dopamine, 3-hydroxytyramine], the “decrease in mucin-containing goblet cell density from contralateral control” value [1, 7] was 64%, the “(Stimulus) Optimal Effective Conc. (M)” value [1] was 10^-8 M and the “(Stimulus) Max % Increase in Secretion” value [1] was 64%. For the same compound, the “conjunctival goblet cell mucous secretion (in words)” value [1] was “stimulate conjunctival goblet cell mucous secretion” and the “concentration giving the maximum effect” value ([1]; 1 hr, Example II) was 10^-8 M.

With `CNC[C@H](O)c1ccc(O)c(O)c1` [epinephrine, (-)-epinephrine] the “electron microscopy of goblet cells, inferior bulbar conjunctiva” value ([1]; 1 μM (FIG. 5D)) was “some of the goblet cells secreted mucus onto the ocular surface in an all or none fashion”, the “goblet cell mucous secretion (in words)” value ([1]; 100 μM topical) was “stimulated mucous secretion” and the “decrease in mucin-containing goblet cell density from contralateral control” value [1, 9] was 46%. The “mucin-containing goblet cell density, inferior conjunctiva” value ([1]; 10^-4 M topical, 1 hr, Example I, P<0.04 vs buffer) was 159±35 cells, the “mucin-containing goblet cell density, inferior conjunctiva” value ([1]; 10^-6 M topical, 1 hr, Example I, unchanged vs buffer) was 200±33 cells and the “mucin-containing goblet cell density, inferior conjunctiva” value ([1]; 10^-8 M topical, 1 hr, Example I, unchanged vs buffer) was 180±55 cells. For the same compound, the “(Stimulus) Optimal Effective Conc. (M)” value [1] was 10^-2 M, the “(Stimulus) Max % Increase in Secretion” value [1] was 52% and the “conjunctival goblet cell mucous secretion (in words)” value [1] was “stimulate conjunctival goblet cell mucous secretion”. For the same compound, the “concentration giving the maximum effect” value ([1]; 1 hr, Example II) was 10^-4 M.

With `CNC[C@H](O)c1cccc(O)c1` [phenylephrine, L-phenylephrine hydrochloride] the “decrease in mucin-containing goblet cell density from contralateral control” value [1, 9] was 40%, the “(Stimulus) Optimal Effective Conc. (M)” value [1] was 10^-4 M and the “(Stimulus) Max % Increase in Secretion” value [1] was 40%. For the same compound, the “conjunctival goblet cell mucous secretion (in words)” value [1] was “stimulate conjunctival goblet cell mucous secretion”, the “concentration giving the maximum effect” value ([1]; 1 hr, Example II) was 10^-4 M and the “conjunctival goblet cell density” value [6] was “does not significantly affect conjunctival goblet cell density”.

In the case of `Nc1ncnc2c1nc(Br)n2[C@@H]1O[C@@H]2COP(=O)(O)O[C@H]2[C@H]1O` [8-Br-cAMP], the mucin discharge [4] is given as “unaffected”.

With `CCCCC(C)(C)[C@H](O)/C=C/[C@H]1[C@H](O)CC(=O)[C@@H]1C/C=C\CCCC(=O)O` [dmPGE2, 16,16-dimethyl-prostaglandin E2] the “mucin-containing goblet cell density, inferior bulbar conjunctiva” value ([1]; 1 μM topical, 1 hr, vs control) was “did not differ significantly from control values”, the “mucin-containing goblet cell density, inferior bulbar conjunctiva” value ([1]; 10 μM topical, 1 hr, vs control) was “did not differ significantly from control values” and the “decrease in mucin-containing goblet cell density from buffer-treated eyes” value ([1]; 100 μM topical, 1 hr, inferior conjunctiva) was 30% and 39%. For the same compound, the “mucin-containing goblet cell density, inferior bulbar conjunctiva” value ([1]; 100 μM topical, 1 hr, mean±SE) was 36±12 goblet cells/0.16 mm^2, the “goblet cell mucous secretion (in words)” value ([1]; 100 μM topical) was “increased goblet cell mucous secretion from inferior but not superior conjunctiva” and the “mucin-containing goblet cell density, superior bulbar conjunctiva” value ([1]; 100 μM, 10 μM, 1 μM topical, 1 hr, vs contralateral control or buffer-treated eyes) was “Neither 100 μM, 10 μM, nor 1 μM dmPGE2 significantly altered the density”. For the same compound, the “electron microscopy of goblet cells, inferior bulbar conjunctiva” value ([1]; 600 μM (FIG. 5B)) was “the goblet cells secreted mucous onto the ocular surface”.

In the case of `NCCc1c[nH]c2ccc(O)cc12` [serotonin, 5-hydroxytryptamine], the “decrease in mucin-containing goblet cell density from contralateral control” value [1, 7] is reported as 54%, the “mucin-containing goblet cell density, inferior conjunctiva” value [1, 8] is reported as 148±27 cells and the “(Stimulus) Optimal Effective Conc. (M)” value [1] is reported as 10^-8 M. The “(Stimulus) Max % Increase in Secretion” value [1] was 54%, the “conjunctival goblet cell mucous secretion (in words)” value [1] was “stimulate conjunctival goblet cell mucous secretion” and the “concentration giving the maximum effect” value ([1]; 1 hr, Example II) was 10^-8 M.

For `C[N+](C)(C)CCOC(N)=O.[Cl-]` [carbachol, carbamyl choline chloride], the “effect on mucin-containing goblet cell density” value ([1]; 10^-5 -10^-4 M topical) was “not at 10^-5 -10^-4 M”, the “decrease in mucin-containing goblet cell density from contralateral control eye” value ([1]; 10^-6 M topical, 1 hr) was 40% and the “effect on mucin-containing goblet cell density” value ([1]; 10^-7 M topical) was “decreased mucin-containing goblet cell density”. The “(Stimulus) Optimal Effective Conc. (M)” value [1] was 10^-6 M, the “(Stimulus) Max % Increase in Secretion” value [1] was 41% and the “conjunctival goblet cell mucous secretion (in words)” value [1] was “stimulate conjunctival goblet cell mucous secretion”. For the same compound, the “concentration giving the maximum effect” value ([1]; 1 hr, Example II) was 10^-6 M.

From patent US5545617A, “Therapeutic regulation of abnormal conjunctival goblet cell mucous secretion” (The Schepens Eye Research Institute, Inc., priority 1993, dated 1996)
